Assay results: the supplement of paper PMC10307832

Tests used:
Assay in all cases: relative viability (nuclei count vs DMSO), 5 days (fraction); higher = more cells survive
[1] = compound: C1=CC=C(C(=C1)C2=CC=C(C=C2)C3=CSC4=C3C(=C(C(=O)N4)C#N)O)O + CC(=O)c1c(C)c2cnc(Nc3ccc(N4CCNCC4)cn3)nc2n(C2CCCC2)c1=O [Palbociclib] (partner 0.5 µM)
In short: (§1)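 Relative viability divides the nuclei count in treated wells by that in vehicle wells. Lung cancer cell lines were seeded in 1536-well plates, dosed by pin tool the next day, and fixed and stained after 5 days in one step with final 0.05% Triton X-100, 1% formaldehyde and 1 ug/ml Hoechst. Dosing was a single drug or a fixed anchor-drug dose plus five library-drug doses (not always all listed) in √10 steps, and values are medians of duplicate plates imaged at 4×.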

[2] = compound: C1=CC=C(C(=C1)C2=CC=C(C=C2)C3=CSC4=C3C(=C(C(=O)N4)C#N)O)O + CS(=O)(=O)N1CCN(Cc2cc3nc(-c4cccc5[nH]ncc45)nc(N4CCOCC4)c3s2)CC1 [Pictilisib] (partner 1 µM)
In short: as §1

TGX 221 + Olaparib = compound: CC1=CN2C(=O)C=C(N=C2C(=C1)C(C)NC3=CC=CC=C3)N4CCOCC4 [TGX 221] + O=C(c1cc(Cc2n[nH]c(=O)c3ccccc23)ccc1F)N1CCN(C(=O)C2CC2)CC1 [Olaparib] (partner 8 µM)
In short: as §1

TGX 221 + Lapatinib = compound: CC1=CN2C(=O)C=C(N=C2C(=C1)C(C)NC3=CC=CC=C3)N4CCOCC4 [TGX 221] + CS(=O)(=O)CCNCc1ccc(-c2ccc3ncnc(Nc4ccc(OCc5cccc(F)c5)c(Cl)c4)c3c2)o1 [Lapatinib] (partner 2 µM)
In short: as §1

| Cell Line | relative viability ([1]; first compound 0.08 µM) | relative viability ([1]; first compound 0.253 µM) | relative viability ([1]; first compound 0.8 µM) | relative viability ([1]; first compound 2.53 µM) | relative viability ([1]; first compound 8 µM) | relative viability ([2]; first compound 0.08 µM) | relative viability ([2]; first compound 0.253 µM) | relative viability ([2]; first compound 0.8 µM) | relative viability ([2]; first compound 2.53 µM) | relative viability ([2]; first compound 8 µM) | relative viability (TGX 221 + Olaparib; first compound 0.08 µM) | relative viability (TGX 221 + Olaparib; first compound 0.253 µM) | relative viability (TGX 221 + Olaparib; first compound 0.8 µM) | relative viability (TGX 221 + Olaparib; first compound 2.53 µM) | relative viability (TGX 221 + Olaparib; first compound 8 µM) | relative viability (TGX 221 + Lapatinib; first compound 0.08 µM) | relative viability (TGX 221 + Lapatinib; first compound 0.253 µM) | relative viability (TGX 221 + Lapatinib; first compound 0.8 µM) | relative viability (TGX 221 + Lapatinib; first compound 2.53 µM) | relative viability (TGX 221 + Lapatinib; first compound 8 µM) |
| --- | --- | --- | --- | --- | --- | --- | --- | --- | --- | --- | --- | --- | --- | --- | --- | --- | --- | --- | --- | --- |
| PC-3 [JPC-3] | 0.496 | 0.599 | 0.535 | 0.601 | 0.577 | 0.69 | 0.888 | 0.665 | 0.685 | 0.652 | 1.12 | 1.02 | 1.25 | 1.06 | 1.07 | 0.448 | 0.46 | 0.445 | 0.431 | 0.429 |
| PC-14 | 0.496 | 0.56 | 0.537 | 0.574 | 0.34 | 0.604 | 0.674 | 0.658 | 0.797 | 0.52 | 0.249 | 0.265 | 0.262 | 0.222 | 0.252 | 0.334 | 0.269 | 0.289 | 0.28 | 0.26 |
| RERF-LC-KJ | 1.01 | 1.18 | 1.11 | 1.29 | 1.04 | 0.576 | 0.538 | 0.567 | 0.466 | 0.493 | 0.834 | 0.756 | 0.996 | 0.844 | 0.874 | 0.837 | 0.824 | 0.749 | 0.829 | 0.84 |
| SK-LU-1 | 0.35 | 0.37 | 0.378 | 0.389 | 0.355 | 0.426 | 0.532 | 0.57 | 0.61 | 0.508 | 0.453 | 0.47 | 0.442 | 0.42 | 0.432 | 0.883 | 0.951 | 0.754 | 0.898 | 0.682 |
| SK-MES-1 | 0.296 | 0.305 | 0.306 | 0.305 | 0.315 | 0.33 | 0.368 | 0.354 | 0.284 | 0.307 | 0.65 | 0.691 | 0.744 | 0.554 | 0.465 | 0.487 | 0.414 | 0.422 | 0.39 | 0.381 |
| SW 1573 | 0.366 | 0.378 | 0.447 | 0.396 | 0.321 | 0.475 | 0.571 | 0.54 | 0.458 | 0.37 | 0.48 | 0.422 | 0.511 | 0.406 | 0.479 | 1.01 | 1.01 | 1.1 | 0.852 | 1.12 |
| UMC-11 | 0.369 | 0.374 | 0.336 | 0.345 | 0.366 | 0.695 | 0.717 | 0.855 | 0.829 | 0.778 | 0.379 | 0.503 | 0.346 | 0.319 | 0.338 | 0.879 | 0.854 | 0.901 | 0.909 | 1.18 |
